Source: the NIST ThermoML archive (doi:10.1021/acs.jced.9b00415)

Settings: for viscosity / mass density: 102 kPa, Liquid; for viscosity: Concentric cylinders viscometry; for mass density: Vibrating tube method

CCCCn1cc[n+](C)c1.CS(=O)(=O)[O-] [1-butyl-3-methylimidazolium methanesulfonate]
Settings	mass density [kg/m3]	viscosity [mPa·s]
348.15 K	1139.4	36.51
353.15 K	1136.3	30.57
358.15 K	1133.1	25.89
363.15 K	1130	22.16

Settings	Triple point temperature [K]
Crystal, DSC	348

CCCCn1cc[n+](C)c1.O=[N+]([O-])[O-] [1-butyl-3-methylimidazolium nitrate]
Settings	Triple point temperature [K]	mass density [kg/m3]	viscosity [mPa·s]
303.15 K	–	1151.9	148.1
308.15 K	–	1148.7	112.9
313.15 K	–	1145.5	87.87
318.15 K	–	1142.3	69.65
323.15 K	–	1139.2	56.17
328.15 K	–	1136.1	45.97
333.15 K	–	1133.1	38.11
338.15 K	–	1130	32.05
343.15 K	–	1127	27.29
348.15 K	–	1123.9	23.4
353.15 K	–	1120.9	20.29
358.15 K	–	1117.9	17.73
363.15 K	–	1115	15.61
Crystal 1, DSC	308	–	–
Crystal 4, DSC	279	–	–

CCCCn1cc[n+](C)c1.[Cl-] [1-butyl-3-methylimidazolium chloride]
Settings	mass density [kg/m3]	viscosity [mPa·s]
343.15 K	1057.5	256.7
348.15 K	1054.8	189.4
353.15 K	1052	142.7
358.15 K	1049.3	109.6
363.15 K	1046.5	85.65

DSC
Settings	Glass transition temperature [°C]	Triple point temperature [K]
Crystal	–	342
Glass	-42	–
